# In PubChem BioAssay (NCI):
# Several values for one entry are separate records, joined by “and”; a condition that tells them apart may be missing. Identical values can stand only once.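 Briefly, cells in 96-well plates were exposed to five compound concentrations for 48 h, and endpoints were estimated by linear interpolation. GI50 = concentration required for 50% inhibition of growth. TGI denotes the concentration required for complete inhibition of growth.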
# What was measured:
# Assay in all cases: inhibition of tumour cell growth, NCI panel, 48 h
# SN12C renal = system: SN12C renal
# NCI-H522 lung = system: NCI-H522 lung
# OVCAR-8 ovarian = system: OVCAR-8 ovarian
# RXF 393 renal = system: RXF 393 renal
# T-47D breast = system: T-47D breast
# CAKI-1 renal = system: CAKI-1 renal
# DU-145 prostate = system: DU-145 prostate
# M14 melanoma = system: M14 melanoma
# OVCAR-3 ovarian = system: OVCAR-3 ovarian
# COLO 205 colon = system: COLO 205 colon
smiles,measurement,setting,value
O=c1[nH]c(SCc2c(Cl)c(Cl)c(Cl)c(Cl)c2Cl)nc(=S)[nH]1,TGI,SN12C renal,> 100 µM
same,TGI,NCI-H522 lung,34.4 µM
same,TGI,OVCAR-8 ovarian,> 100 µM
same,TGI,RXF 393 renal,35.5 µM
same,TGI,T-47D breast,> 82.9 µM
same,TGI,CAKI-1 renal,> 100 µM
same,TGI,DU-145 prostate,> 100 µM
same,TGI,M14 melanoma,> 100 µM
same,TGI,OVCAR-3 ovarian,31 µM
same,TGI,COLO 205 colon,33.8 µM
N#Cc1c(-c2ccccc2)cc(-c2ccccc2)n(CCCCC(=O)NO)c1=O,GI50,SN12C renal,2.95 µM
same,TGI,SN12C renal,11.5 µM
same,GI50,NCI-H522 lung,2.06 µM
same,TGI,NCI-H522 lung,8.36 µM
same,GI50,OVCAR-8 ovarian,2.16 µM
same,TGI,OVCAR-8 ovarian,14 µM
same,GI50,RXF 393 renal,1.43 µM
same,TGI,RXF 393 renal,3.36 µM
same,GI50,T-47D breast,1.93 µM
same,TGI,T-47D breast,7.99 µM
same,GI50,CAKI-1 renal,1.61 µM
same,TGI,CAKI-1 renal,3.9 µM
same,GI50,DU-145 prostate,2.96 µM
same,TGI,DU-145 prostate,11.3 µM
same,GI50,M14 melanoma,2.76 µM
same,TGI,M14 melanoma,11.6 µM
same,GI50,OVCAR-3 ovarian,2.26 µM
same,TGI,OVCAR-3 ovarian,7.49 µM
same,GI50,COLO 205 colon,2.74 µM
same,TGI,COLO 205 colon,7.76 µM
COc1cc([C@@H]2c3cc4c(cc3[C@@H](O[C@@H]3O[C@@H]5CO[C@@H](c6cccs6)O[C@H]5[C@H](O)[C@H]3O)[C@H]3COC(=O)[C@H]23)OCO4)cc(OC)c1O,GI50,SN12C renal,0.166 µM
same,TGI,SN12C renal,2.73 µM
same,GI50,NCI-H522 lung,0.208 µM
same,TGI,NCI-H522 lung,1.4 µM
same,GI50,OVCAR-8 ovarian,0.34 µM
same,TGI,OVCAR-8 ovarian,2.51 µM
same,GI50,RXF 393 renal,0.409 µM
same,TGI,RXF 393 renal,3.41 µM
same,GI50,T-47D breast,0.207 µM
same,TGI,T-47D breast,12.3 µM
same,GI50,CAKI-1 renal,0.557 µM
same,TGI,CAKI-1 renal,24.2 µM
same,GI50,DU-145 prostate,0.288 µM
same,TGI,DU-145 prostate,3.43 µM
same,GI50,M14 melanoma,0.267 µM
same,TGI,M14 melanoma,2.95 µM
same,GI50,OVCAR-3 ovarian,1.42 µM
same,TGI,OVCAR-3 ovarian,5.45 µM
same,GI50,COLO 205 colon,1.88 µM
same,TGI,COLO 205 colon,8.94 µM
OC(COc1cccc2ccccc12)CN1CCN(c2ccccc2)CC1 (stereo not given),GI50,SN12C renal,16.4 µM
same,TGI,SN12C renal,31 µM
same,GI50,NCI-H522 lung,14.4 µM
same,TGI,NCI-H522 lung,29.2 µM
same,GI50,OVCAR-8 ovarian,17.3 µM
same,TGI,OVCAR-8 ovarian,32.1 µM
same,GI50,RXF 393 renal,18.2 µM
same,TGI,RXF 393 renal,32.9 µM
same,GI50,T-47D breast,17.3 µM
same,TGI,T-47D breast,34.7 µM
same,GI50,CAKI-1 renal,12.6 µM
same,TGI,CAKI-1 renal,27.2 µM
same,GI50,DU-145 prostate,17.7 µM
same,TGI,DU-145 prostate,31.9 µM
same,GI50,M14 melanoma,15.5 µM
same,TGI,M14 melanoma,29.7 µM
same,GI50,OVCAR-3 ovarian,15.1 µM
same,TGI,OVCAR-3 ovarian,28.8 µM
same,GI50,COLO 205 colon,16.4 µM
same,TGI,COLO 205 colon,30.9 µM
COc1ccc(/C=C\c2cc(OC)c(OC)c(OC)c2)cc1OC(=O)c1cccc(Cn2cc(CCOC(=O)c3cccc(Cn4nnc5c4C(=O)c4ccccc4C5=O)c3)nn2)c1,GI50,SN12C renal,< 0.0173 µM
same,TGI,SN12C renal,> 100 µM
same,GI50,NCI-H522 lung,0.0102 µM
same,GI50,OVCAR-8 ovarian,< 0.01 µM
same,TGI,OVCAR-8 ovarian,> 44.8 µM
same,GI50,RXF 393 renal,< 0.01 µM
same,TGI,RXF 393 renal,13.6 µM
same,GI50,T-47D breast,51.6 µM
same,TGI,T-47D breast,> 100 µM
same,GI50,CAKI-1 renal,0.0459 µM
same,TGI,CAKI-1 renal,20.1 µM
same,GI50,DU-145 prostate,< 0.01 µM
same,GI50,M14 melanoma,< 0.01 µM
same,TGI,M14 melanoma,10.9 µM
same,GI50,OVCAR-3 ovarian,< 0.01 µM
same,GI50,COLO 205 colon,0.344 µM
CC(=O)OC[C@]12CC[C@@H]([C@@H](C)C(N)=O)[C@@H]1[C@H]1CC[C@@H]3[C@@]4(C)CC[C@H](OC(C)=O)C(C)(C)[C@@H]4CC[C@@]3(C)[C@]1(C)CC2,GI50,SN12C renal,5.65 µM
same,TGI,SN12C renal,18.8 µM
same,GI50,NCI-H522 lung,4.94 µM
same,TGI,NCI-H522 lung,20.7 µM
same,GI50,OVCAR-8 ovarian,5.44 µM
same,TGI,OVCAR-8 ovarian,25.2 µM
same,GI50,RXF 393 renal,4.28 µM
same,TGI,RXF 393 renal,16.3 µM
same,GI50,T-47D breast,2.91 µM
same,TGI,T-47D breast,12.9 µM
same,GI50,CAKI-1 renal,3.24 µM
same,TGI,CAKI-1 renal,15.4 µM
same,GI50,DU-145 prostate,9.94 µM
same,TGI,DU-145 prostate,23.3 µM
same,GI50,M14 melanoma,7.38 µM
same,TGI,M14 melanoma,31.6 µM
same,GI50,OVCAR-3 ovarian,3.95 µM
same,TGI,OVCAR-3 ovarian,13.3 µM
same,GI50,COLO 205 colon,4.31 µM
same,TGI,COLO 205 colon,25 µM
C#CCNC(=O)CC[C@]1(C)[C@H]2CC[C@@H]3[C@@H]([C@@](C)(O)CCC=C(C)C)CC[C@@]3(C)[C@]2(C)CC[C@H]1C(=C)C,GI50,SN12C renal,31.8 µM
same,TGI,SN12C renal,> 100 µM
same,GI50,NCI-H522 lung,15.2 µM
same,TGI,NCI-H522 lung,35.1 µM
same,GI50,OVCAR-8 ovarian,31.3 µM
same,TGI,OVCAR-8 ovarian,> 100 µM
same,GI50,RXF 393 renal,26.2 µM
same,TGI,RXF 393 renal,81.9 µM
same,GI50,T-47D breast,35 µM
same,TGI,T-47D breast,> 100 µM
same,GI50,CAKI-1 renal,4.25 µM
same,TGI,CAKI-1 renal,17.7 µM
same,GI50,DU-145 prostate,34.8 µM
same,TGI,DU-145 prostate,> 100 µM
same,GI50,M14 melanoma,30.9 µM
same,TGI,M14 melanoma,> 100 µM
same,GI50,OVCAR-3 ovarian,31.3 µM
same,TGI,OVCAR-3 ovarian,89.9 µM
same,GI50,COLO 205 colon,31.9 µM
same,TGI,COLO 205 colon,> 100 µM
CC1=C(/C=C/C(C)=C/C=C/C(C)=C/C(=O)Nc2ccc(O)cc2)C(C)(C)CCC1,GI50,SN12C renal,1.61 µM
same,TGI,SN12C renal,5.23 µM and 5.63 µM
same,GI50,NCI-H522 lung,0.262 µM
same,TGI,NCI-H522 lung,0.787 µM and 2.82 µM
same,GI50,OVCAR-8 ovarian,2.56 µM
same,TGI,OVCAR-8 ovarian,8.48 µM and 10.2 µM
same,TGI,RXF 393 renal,6.5 µM and 5.43 µM
same,GI50,T-47D breast,1.31 µM
same,TGI,T-47D breast,9.24 µM and 15.5 µM
same,GI50,CAKI-1 renal,3.87 µM
same,TGI,CAKI-1 renal,15.8 µM and 13.6 µM
same,GI50,DU-145 prostate,2.93 µM
same,TGI,DU-145 prostate,12.1 µM and 21.4 µM
same,GI50,M14 melanoma,4.05 µM
same,TGI,M14 melanoma,12.7 µM and 18.7 µM
same,GI50,OVCAR-3 ovarian,1.5 µM
same,TGI,OVCAR-3 ovarian,3.13 µM and 7.54 µM
same,GI50,COLO 205 colon,1.58 µM
same,TGI,COLO 205 colon,4.8 µM and 8.28 µM
COC(=O)[C@H](CC(C)C)NC(=O)NC(=O)NC(=O)CI,GI50,SN12C renal,3.61 µM
same,TGI,SN12C renal,16.2 µM
same,GI50,NCI-H522 lung,1.67 µM
same,TGI,NCI-H522 lung,3.2 µM
same,GI50,OVCAR-8 ovarian,5.69 µM
same,TGI,OVCAR-8 ovarian,18.4 µM
same,GI50,RXF 393 renal,2.46 µM
same,TGI,RXF 393 renal,6.54 µM
same,GI50,T-47D breast,2.28 µM
same,TGI,T-47D breast,7.03 µM
same,GI50,CAKI-1 renal,1.06 µM
same,TGI,CAKI-1 renal,2.23 µM
same,GI50,DU-145 prostate,14 µM
same,TGI,DU-145 prostate,27 µM
same,GI50,M14 melanoma,2.03 µM
same,TGI,M14 melanoma,4.94 µM
same,GI50,OVCAR-3 ovarian,1.99 µM
same,TGI,OVCAR-3 ovarian,3.51 µM
same,GI50,COLO 205 colon,1.79 µM
same,TGI,COLO 205 colon,3.47 µM
O=C1c2ccccc2-c2c1c1ccccc1c(=O)n2CCCN1CCN(CCCn2c3c(c4ccccc4c2=O)C(=O)c2ccccc2-3)CC1,GI50,SN12C renal,> 39.2 µM
same,TGI,SN12C renal,> 92 µM
same,GI50,NCI-H522 lung,> 100 µM
same,TGI,NCI-H522 lung,> 100 µM
same,GI50,OVCAR-8 ovarian,15.6 µM
same,TGI,OVCAR-8 ovarian,> 100 µM
same,GI50,RXF 393 renal,46.2 µM
same,TGI,RXF 393 renal,> 100 µM
same,GI50,T-47D breast,> 100 µM
same,TGI,T-47D breast,> 100 µM
same,GI50,CAKI-1 renal,> 100 µM
same,TGI,CAKI-1 renal,> 100 µM
same,GI50,DU-145 prostate,23.7 µM
same,TGI,DU-145 prostate,> 86.4 µM
same,GI50,M14 melanoma,> 100 µM
same,TGI,M14 melanoma,> 100 µM
same,GI50,OVCAR-3 ovarian,> 100 µM
same,TGI,OVCAR-3 ovarian,> 100 µM
same,GI50,COLO 205 colon,> 100 µM
same,TGI,COLO 205 colon,> 100 µM
CCOC(=O)C1=C(C)NC(=O)NC1c1coc2cc(C)cc(C)c2c1=O (stereo not given),TGI,SN12C renal,> 100 µM
same,TGI,NCI-H522 lung,14.5 µM
same,TGI,OVCAR-8 ovarian,> 100 µM
same,TGI,RXF 393 renal,> 100 µM
same,TGI,T-47D breast,> 100 µM
same,TGI,CAKI-1 renal,> 100 µM
same,TGI,DU-145 prostate,> 100 µM
same,TGI,M14 melanoma,> 100 µM
same,TGI,OVCAR-3 ovarian,> 70.5 µM
same,TGI,COLO 205 colon,> 100 µM
Clc1ccc(-c2nn3ncccc3c2-c2ccnc(Nc3ccccc3)n2)cc1,GI50,SN12C renal,8.29 µM
same,TGI,SN12C renal,> 25 µM
same,GI50,NCI-H522 lung,5.99 µM
same,TGI,NCI-H522 lung,> 25 µM
same,GI50,OVCAR-8 ovarian,11.8 µM
same,TGI,OVCAR-8 ovarian,> 25 µM
same,GI50,RXF 393 renal,6.56 µM
same,TGI,RXF 393 renal,> 25 µM
same,GI50,T-47D breast,10.2 µM
same,TGI,T-47D breast,> 25 µM
same,GI50,CAKI-1 renal,2.5 µM
same,TGI,CAKI-1 renal,> 22.2 µM
same,GI50,DU-145 prostate,11 µM
same,TGI,DU-145 prostate,> 25 µM
same,GI50,M14 melanoma,> 14.8 µM
same,TGI,M14 melanoma,> 25 µM
same,GI50,OVCAR-3 ovarian,5.92 µM
same,TGI,OVCAR-3 ovarian,> 25 µM
same,GI50,COLO 205 colon,> 18.7 µM
same,TGI,COLO 205 colon,> 25 µM
C[C@H]1CC[C@@H]2[C@@H](C)[C@H]3[C@H](C[C@H]4[C@@H]5CC=C6C[C@@H](O)CC[C@]6(C)[C@H]5C[C@H](O)[C@]34C)N2C1,TGI,SN12C renal,> 100 µM
same,TGI,NCI-H522 lung,> 100 µM
same,TGI,OVCAR-8 ovarian,> 100 µM
same,TGI,RXF 393 renal,> 100 µM
same,TGI,T-47D breast,> 100 µM
same,TGI,CAKI-1 renal,> 100 µM
same,TGI,DU-145 prostate,> 100 µM
same,TGI,M14 melanoma,> 100 µM
same,TGI,OVCAR-3 ovarian,> 100 µM
same,TGI,COLO 205 colon,> 100 µM
